Measured values: BindingDB's records for doi:10.1016/j.bmc.2018.05.045 (University of Arizona, 2018)
pEC50, pKi: −log10 of the molar value. Where a SMILES comes first, the peptide text is derived from it.

Key:
[1] = target: T1, Kappa-type opioid receptor (Homo sapiens, UniProt P41145); assay: Displacement of [3H]U69593 from KOR (unknown origin) expressed in HEK cells
[2] = target: T1, Kappa-type opioid receptor; assay: Agonist activity at KOR (unknown origin) expressed in HEK cells assessed as reduction in cAMP accumulation by split luciferase assay

T1 sequence (P41145 whole entry): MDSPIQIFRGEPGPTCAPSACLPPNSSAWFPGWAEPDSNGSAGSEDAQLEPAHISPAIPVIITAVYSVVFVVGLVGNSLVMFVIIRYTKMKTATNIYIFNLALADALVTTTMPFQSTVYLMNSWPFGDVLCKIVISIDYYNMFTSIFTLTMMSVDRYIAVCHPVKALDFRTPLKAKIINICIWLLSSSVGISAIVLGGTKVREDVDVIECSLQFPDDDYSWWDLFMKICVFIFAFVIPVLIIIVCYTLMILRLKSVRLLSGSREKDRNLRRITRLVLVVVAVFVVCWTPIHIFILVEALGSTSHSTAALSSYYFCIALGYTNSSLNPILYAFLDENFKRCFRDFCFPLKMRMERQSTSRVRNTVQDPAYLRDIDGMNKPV

`CC1(C)SSC(C)(C)[C@H](NC(=O)[C@@H](N)Cc2ccc(O)cc2)C(=O)NCC(=O)N[C@@H](Cc2ccccc2)C(=O)N2CCN(CC2)C(=O)[C@H](Cc2ccccc2)NC(=O)CNC(=O)[C@H]1NC(=O)[C@@H](N)Cc1ccc(O)cc1` (HELM PEPTIDE1{Y.[Pen].G.F}|PEPTIDE2{Y.[Pen].G.F}|CHEM1{[C1CN([*:2])CCN1[*:1]]}$PEPTIDE1,PEPTIDE2,2:R3-2:R3|PEPTIDE1,CHEM1,4:R2-1:R1|PEPTIDE2,CHEM1,4:R2-1:R2$$$V2.0) showed a pKi [1] of 8.25 and a pEC50 [2] of 6.57.
